According to PubChem BioAssay (NCI):
Where “and” joins values, the source holds several entries; their conditions need not be identical. Identical values can stand only once.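 Five concentrations, 48 hours, 96-well plates. GI50 = concentration required for 50% inhibition of growth. TGI: total growth inhibition.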

Columns and labels:
Experiment in all cases: NCI-60 cell line screen, 48 h
[1] = tested on: MOLT-4 leukemia
[2] = tested on: OVCAR-4 ovarian
[3] = tested on: HOP-92 NSCLC
[4] = tested on: COLO 205 colon
[5] = tested on: UO-31 renal
[6] = tested on: CAKI-1 renal
[7] = tested on: 786-0 renal
[8] = tested on: DU-145 prostate
[9] = tested on: RPMI-8226 leukemia
[10] = tested on: MDA-MB-231 breast

Compound | GI50 [1] [µM] | TGI [1] [µM] | GI50 [2] [µM] | TGI [2] [µM] | GI50 [3] | TGI [3] [µM] | GI50 [4] | TGI [4] [µM] | GI50 [5] [µM] | TGI [5] [µM] | GI50 [6] | TGI [6] [µM] | GI50 [7] [µM] | TGI [7] [µM] | GI50 [8] [µM] | TGI [8] [µM] | GI50 [9] [µM] | TGI [9] [µM] | GI50 [10] | TGI [10] [µM]
Cn1ccnc1C(=O)/C=C/c1ccc(CC(=O)Nc2ccc(C(F)(F)F)cc2)cc1 | 1.17 | 8.06 | 3.1 | > 16.7 | 2.4 µM | 5.66 | 3.17 µM | 6.17 | 2.51 | 4.76 | 3.54 µM | 9.53 | 1.81 | 4.07 | 2.97 | 6.42 | 0.869 | 5.17 | 4.02 µM | 15.2
CCCCN(CCCC)c1ccc(C(=NC(C)CCCN(CC)CC)c2ccc(N(C)C)cc2)cc1 (stereo unspecified) | 0.865 | 2.18 | 1.09 | 3.34 | 0.609 µM | 1.71 | 0.85 µM | 1.69 | 0.713 | 1.42 | 1.17 µM | 3.41 | 0.705 | 1.43 | 1.57 | 6.04 | 0.95 | 2.19 | 0.863 µM | 1.82
O=C(CN(/C=C/C(=O)C(F)(F)F)c1ccccc1)c1ccc(Cl)c(Cl)c1 | 12.7 | 32.4 | 20.3 | 45.6 | 17.7 µM | 38.5 | 19.5 µM | 42.4 | 11.4 | 24.3 | 8.44 µM | 23.4 | 17.6 | 37.5 | 13 | 30.6 | 13.9 | 40.2 | 12.8 µM | 26.3
CCN1C(=O)N(CC)C2C1NN=c1s/c(=C\c3cc4ccccc4[nH]3)c(=O)n12 (stereo unspecified) | < 0.018 | > 100 | < 0.0162 | > 100 | 0.0681 µM | 6.28 | 0.0201 µM | 0.0448 | 0.0523 | 10.4 | < 0.0169 µM | 11.6 | 0.0387 | 22.3 | 0.0225 | > 100 | < 0.0185 | 2.19 | 0.0118 µM | 27
Nc1c(C(=O)Nc2ccccc2)sc2nc3c(cc12)CN(Cc1ccccc1)CC3 | 31.3 | > 100 | 1.97 | 23.1 | 2.48 µM | 20.4 | 24 µM | > 100 | 6.14 | > 100 | 19.7 µM | > 100 | 13 | > 100 | 14.8 | > 100 | 55.8 | > 100 | 5.81 µM | > 100
COCCNc1cc(NC(=O)N2CCCc3cc(CN4CCN(C)CC4=O)c(C=O)nc32)ncc1C#N | > 50 | > 50 | > 50 | > 50 | 1.59 µM | 21.6 | 27.2 µM | > 50 | > 50 | > 50 | > 50 µM | > 50 | 29.5 | > 50 | > 50 | > 50 | 42.4 | > 50 | 44.8 µM | > 50
S=C(Nc1cc(Cl)c(Cl)cc1Cl)SCc1ccccc1 |  | 76.4 |  | 65.3 |  | 75.8 |  | > 100 |  | > 100 |  | 44 |  | > 100 |  | > 100 |  | 46.5 |  | 29.6
OCC1OC(n2cnc3c(=S)nc[nH]c32)C(O)C1O (stereo unspecified) | 2.58 | > 2500 | 4.05 | > 2500 | 0.698 µM | > 1780 | 8.34 µM | > 2450 |  | > 2500 | 6.94 µM | > 2500 | 2.71 | > 2500 |  | > 2500 | 2.57 | > 2500 | 14.1 µM | > 2500
Cc1[nH]c2ccccc2c1CCNCc1ccc(/C=C/C(=O)NO)cc1 | < 0.01 |  | 0.015 | 0.0585 | < 0.01 µM | < 0.01 | < 0.0108 µM | 0.0218 | 0.0129 | 0.0637 | 0.0193 µM | 0.0524 | 0.0275 | 0.49 | < 0.01 | 0.0532 | < 0.0123 | 0.595 | 0.0284 µM | 0.162
CC(C)(C#N)c1cc(C(=O)Nc2cc(Nc3ncccc3-c3ncnc4nc[nH]c34)ccc2F)cc(C(F)(F)F)c1 |  | > 6.2 | 1.3 | > 2.93 | 0.255 µM | 1.78 | 0.131 µM |  | 0.189 |  | 1.14 µM | > 3.55 |  | > 6.73 | > 2.01 | > 10 | 4.84 | > 10 | 0.27 µM | 
FC(F)(F)c1ccc(-c2cnc(Cl)nc2NCc2cc(C(F)(F)F)cc(C(F)(F)F)c2)cc1 | 3.94 | > 100 | 2.94 | > 100 | 1.37 µM | 4.3 | 1.88 µM | 3.43 | 2.51 | > 100 | 2.1 µM | 7.52 | 3.67 | > 100 | 3.92 | > 100 | 3.08 | > 100 | 2.19 µM | 6.4
Cc1ccc2c(c1)C(=O)c1c-2n(CCCBr)c(=O)c2cc([N+](=O)[O-])ccc12 | 26.6 | > 100 | > 100 | > 100 | 29.4 µM | > 100 | 87.4 µM | > 100 | 27.5 | > 100 | 5.28 µM | 32.6 | 57.5 | > 100 | 49.8 | > 100 | 19.2 | > 100 | 58.8 µM | > 100
CSC1(SC2=NCCN2)SC2(NCCN2)S1 |  | 52.9 |  | 44.6 |  | 28.4 |  | 40.5 |  | 32.2 |  | 27 |  | 14.2 |  | 28.2 |  | 13.4 |  | 38.6
Nc1cc(N)c2nc(-c3ccccc3)c(NCc3ccc(F)cc3)nc2c1 | > 100 | > 100 | 1.69 | 8.08 | 3.32 µM | 6.91 | 2.53 µM | 6.18 | 3.81 | > 100 | 15.3 µM | 37.1 | 23.7 | 62.2 | 1.5 | 3.81 | 2.54 | 6.25 | 2.13 µM | 5.08
Nc1n[nH]c2ccc([C@@H]3Nc4ccc5[nH]ncc5c4[C@H]4C5C=CC(C5)[C@@H]34)cc12 (stereo partly specified) | 0.433 | 40.7 | 1.76 | > 90.7 | 1.46 µM | 10.7 | 0.332 µM | 1.83 | 0.769 | 31.7 | 0.23 µM | 21.6 | 0.6 | 16.8 | 0.445 | > 30.8 | 0.355 | 11.5 | 0.694 µM | 12.4
Clc1nc(Cl)c(-c2ccccc2)c(Cl)n1 |  | > 100 |  | 6.55 |  | 11.4 |  | 3.6 |  | 9.08 |  | 3.33 |  | 6.55 |  | 26.4 |  | 6.16 |  | 10.7
CN(C)CC1CCCCCC(CN(C)C)C1=O (stereo unspecified) | 2 | 5.51 | 3.4 | 21.7 | 2.69 µM | 8.11 | 1.2 µM | 2.68 | 1.77 | 4.5 | 1.49 µM | 3.12 | 12.8 | 33.2 | 3.19 | 12.4 | 3.15 | 13.9 | 8.68 µM | 23.8
c1ccc(P(CCP(CCP(c2ccccc2)c2ccccc2)c2ccccc2)CCP(c2ccccc2)c2ccccc2)cc1 (stereo unspecified) |  | 5.85 |  | > 10 | > 10 µM and 2.25 µM | > 10 | > 10 µM and 2.08 µM | > 10 |  | > 10 | > 10 µM and 3 µM | > 10 |  | 3.21 |  | > 10 |  | > 10 | > 10 µM and 3.58 µM | > 10
O=C(CCCSc1nc(-c2ccccc2)cc(-c2ccc(Cl)cc2)n1)NO | 1.51 | 10.6 | 1.12 | 14.4 | 2.29 µM | 8.26 | 2.9 µM | 12.1 | 0.352 | 2.1 | 0.355 µM | 9.36 | 1.47 | 13.3 | 1.39 | 8.94 | 1.65 | 8.42 | 2.12 µM | 11.6
CCCOc1nc(SCCC)nc2c1cnn2-c1ccccc1 | > 100 | > 100 | > 100 | > 100 | 2.93 µM | > 100 | > 100 µM | > 100 | > 100 | > 100 | 68.2 µM | > 100 | > 100 | > 100 | > 100 | > 100 | 70.9 | > 100 | > 100 µM | > 100
O=c1cc(N=Nc2ccc(O)cc2)[nH]c(=O)[nH]1 |  | > 100 |  | > 100 |  | > 100 |  | > 100 |  | > 100 |  | > 100 |  | > 100 |  | > 100 |  | > 100 |  | > 100
COc1ccc2c(c1)C(C)Cc1c(Cl)nc(C)nc1N2C (stereo unspecified) | 5.01 | > 100 | 4.94 | > 100 | 3.95 µM | 29.5 | 2.07 µM | 5.53 | 3.99 | 36.1 | 2.56 µM | > 100 | 3.94 | 32 | 3.72 | 33.5 | 4.14 | 36 | 4.34 µM | 34.9
COc1cc2c3c(n(C)c(=O)c2cc1OC)-c1cc2c(cc1/C3=C\C(N)CN)OCO2 (stereo unspecified) | 0.125 | > 40.7 | 5.44 | > 100 | 0.368 µM | 6.8 | 2.08 µM | 12.1 | 4.44 | > 36.5 | 2.27 µM | 10.4 | 1.27 | 9.92 | 2.02 | 10 | 6.43 | 26.1 | 4.15 µM | > 53.3
